In PubChem BioAssay AID330 (DTP/NCI, 2004):
Several values for one entry are separate records, joined by “and”; a condition that tells them apart may be missing. Equal entries are not always repeated. Inconclusive results and toxic doses are left out.

Test system: P388 leukemia ip, CD2F1 mice, survival T/C
Test: NCI In Vivo Anticancer Drug Screen. Data for tumor model P388 Leukemia (intraperitoneal) in CD2F1 (CDF1) mice
Settings: endpoint: median survival time, higher = longer survival
Procedure, shortened: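 Mice carrying the transplanted tumor received test compound or vehicle. Survival was recorded in each group, and the value is the treated-group measurement divided by that of the vehicle-treated control group.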

[1] = dose: 50.0 mg/kg/injection, schedule: Q01DX005 (ip), vehicle: saline
[2] = dose: 100.0 mg/kg/injection, schedule: Q01DX005 (ip), vehicle: saline
[3] = dose: 50.0 mg/kg/injection, schedule: Q01DX009 (ip), vehicle: saline with Tween-80
[4] = dose: 100.0 mg/kg/injection, schedule: Q01DX009 (ip), vehicle: saline with Tween-80
[5] = dose: 200.0 mg/kg/injection, schedule: Q01DX009 (ip), vehicle: saline with Tween-80
[6] = dose: 200.0 mg/kg/injection, schedule: Q01DX005 (ip), vehicle: saline
[7] = dose: 25.0 mg/kg/injection, schedule: Q01DX009 (ip), vehicle: saline with Tween-80
[8] = dose: 50.0 mg/kg/injection, schedule: Q01DX005 (ip), vehicle: Klucel (hydroxypropylcellulose) (HPC)
[9] = dose: 100.0 mg/kg/injection, schedule: Q01DX005 (ip), vehicle: Klucel (hydroxypropylcellulose) (HPC)
[10] = dose: 12.5 mg/kg/injection, schedule: Q01DX005 (ip), vehicle: Klucel (hydroxypropylcellulose) (HPC)
[11] = dose: 25.0 mg/kg/injection, schedule: Q01DX005 (ip), vehicle: Klucel (hydroxypropylcellulose) (HPC)
[12] = dose: 12.5 mg/kg/injection, schedule: Q01DX009 (ip), vehicle: saline
[13] = dose: 25.0 mg/kg/injection, schedule: Q01DX009 (ip), vehicle: saline
[14] = dose: 50.0 mg/kg/injection, schedule: Q01DX009 (ip), vehicle: saline
[15] = dose: 200.0 mg/kg/injection, schedule: Q01DX005 (ip), vehicle: Klucel (hydroxypropylcellulose) (HPC)
[16] = dose: 6.25 mg/kg/injection, schedule: Q01DX009 (ip), vehicle: saline
[17] = dose: 100.0 mg/kg/injection, schedule: Q01DX009 (ip), vehicle: Klucel (hydroxypropylcellulose) (HPC)
[18] = dose: 200.0 mg/kg/injection, schedule: Q01DX009 (ip), vehicle: Klucel (hydroxypropylcellulose) (HPC)

In the case of `COc1ccc(C(=O)C(c2ccc(OC)c(OC)c2O)C(OC)OC)c(O)c1` (configuration not stated), the T/C (dose: 75.0 mg/kg/injection, schedule: Q04DX003 (ip), vehicle: Klucel (hydroxypropylcellulose) (HPC)) was 100 % of control, the T/C (dose: 150.0 mg/kg/injection, schedule: Q04DX003 (ip), vehicle: Klucel (hydroxypropylcellulose) (HPC)) was 98 % of control and the T/C (dose: 300.0 mg/kg/injection, schedule: Q04DX003 (ip), vehicle: Klucel (hydroxypropylcellulose) (HPC)) was 98 % of control.

With `CC(=NCc1ccccc1)NO` the T/C [1] was 97 % of control and the T/C [2] was 96 % of control.

`Cc1cc(Cl)ccc1N=Cc1ccc(OCc2ccccc2)cc1` was tested, and the T/C [3] was 92 % of control, the T/C [4] was 90 % of control and the T/C [5] was 88 % of control.

`Cc1cc(Cl)c2cc3c(cc2n1)CCCC3` was tested, and the T/C (dose: 60.0 mg/kg/injection, schedule: Q01DX005 (ip), vehicle: Klucel (hydroxypropylcellulose) (HPC)) was 102 % of control and the T/C (dose: 120.0 mg/kg/injection, schedule: Q01DX005 (ip), vehicle: Klucel (hydroxypropylcellulose) (HPC)) was 109 % of control.

In the case of `c1ccc2c(c1)CC1OCN3CN(COC4Cc5ccccc5CC43)C1C2` (configuration not stated), the T/C [1] was 114 % of control, the T/C [2] was 111 % of control and the T/C [6] was 112 % of control.

With `N#CNc1c2ccccc2nc2ccccc12` the T/C (dose: 15.0 mg/kg/injection, schedule: Q01DX005 (ip), vehicle: saline with Tween-80) was 101 % of control, the T/C (dose: 30.0 mg/kg/injection, schedule: Q01DX005 (ip), vehicle: saline with Tween-80) was 97 % of control and the T/C (dose: 60.0 mg/kg/injection, schedule: Q01DX005 (ip), vehicle: saline with Tween-80) was 99 % of control and 100 % of control.

With `Cc1c(-c2ccccc2)noc1-c1ccccc1` the T/C (dose: 100.0 mg/kg/injection, schedule: Q04DX003 (ip), vehicle: saline) was 106 % of control, the T/C (dose: 200.0 mg/kg/injection, schedule: Q04DX003 (ip), vehicle: saline) was 102 % of control and the T/C (dose: 400.0 mg/kg/injection, schedule: Q04DX003 (ip), vehicle: saline) was 101 % of control.

With `O=[N+]([O-])c1ccc(SSc2ccc([N+](=O)[O-])cn2)nc1` the T/C [7] was 104 % of control, the T/C [3] was 86 % of control and the T/C [4] was 95 % of control.

With `O=C(O)Cc1ccc2c(c1)C(=O)c1ccccc1CO2` the T/C [3] was 94 % of control, the T/C [4] was 103 % of control and the T/C [5] was 100 % of control.

`CC1(C)CC(O)C2(CO)C(C1)C1=CCC3C4(C)CCC(O)C(C)(C)C4CCC3(C)C1(C)C(O)C2O` (configuration not stated) was tested, and the T/C (dose: 5.25 mg/kg/injection, schedule: Q01DX005 (ip), vehicle: Klucel (hydroxypropylcellulose) (HPC)) was 100 % of control, the T/C (dose: 10.5 mg/kg/injection, schedule: Q01DX005 (ip), vehicle: Klucel (hydroxypropylcellulose) (HPC)) was 103 % of control and the T/C (dose: 21.0 mg/kg/injection, schedule: Q01DX005 (ip), vehicle: Klucel (hydroxypropylcellulose) (HPC)) was 94 % of control. For the same molecule, the T/C (dose: 42.0 mg/kg/injection, schedule: Q01DX005 (ip), vehicle: Klucel (hydroxypropylcellulose) (HPC)) was 99 % of control.

`[Cu+2].[NH-]CC1CCCC[N-]1.[NH-]CC1CCCC[N-]1.[O-][Cl+3]([O-])([O-])O` (configuration not stated) was tested, and the T/C (dose: 6.25 mg/kg/injection, schedule: Q01DX009 (ip), vehicle: saline with Tween-80) was 103 % of control, the T/C (dose: 12.5 mg/kg/injection, schedule: Q01DX009 (ip), vehicle: saline with Tween-80) was 100 % of control and 96 % of control and the T/C [7] was 107 % of control.

In the case of `Nc1ccccc1SSc1ccccc1C(=O)O`, the T/C [8] was 112 % of control and the T/C [9] was 112 % of control.

For `Cc1cc(=O)[nH]c2ccc3ccccc3c12`, the T/C [10] was 91 % of control, the T/C [11] was 91 % of control and the T/C [8] was 86 % of control.

For `[CH3][Sn]1([CH3])[O]c2ccccc2C=NCCN=Cc2ccccc2[O]1`, the T/C [12] was 100 % of control and 91 % of control, the T/C [13] was 106 % of control and 86 % of control and the T/C [14] was 91 % of control. The T/C (dose: 100.0 mg/kg/injection, schedule: Q01DX009 (ip), vehicle: saline) was 107 % of control.

`COc1cc2c(cc1OCc1ccccc1)C(Cc1cc(Br)sc1Br)=NCC2` was tested, and the T/C [8] was 88 % of control, the T/C [9] was 90 % of control and the T/C [15] was 92 % of control.

In the case of `COc1cc(OC)c(/C=N/Nc2cc(C)c3ccc(OC)cc3n2)c(OC)c1`, the T/C [8] was 105 % of control, the T/C [9] was 113 % of control and the T/C [15] was 114 % of control.

`CCCCn1[nH]nc(C(=O)OC)c1=O` (tested in a mixture with another compound) was tested, and the T/C [1] was 105 % of control, the T/C [2] was 102 % of control and the T/C [6] was 94 % of control.

With `O=C(NO)/C(CC(=O)c1ccccc1O)=N\O` the T/C (dose: 60.0 mg/kg/injection, schedule: Q01DX005 (ip), vehicle: saline) was 100 % of control, the T/C (dose: 120.0 mg/kg/injection, schedule: Q01DX005 (ip), vehicle: saline) was 111 % of control and the T/C (dose: 240.0 mg/kg/injection, schedule: Q01DX005 (ip), vehicle: saline) was 103 % of control.

With `COC1/C=C/OC2(C)Oc3c(C)c(O)c4c(O)c(c(/C=N/N5C(C)CN(Cc6ccc(O)cc6)CC5C)c(O)c4c3C2=O)NC(=O)C(C)=C/C=C/C(C)C(O)C(C)C(O)C(C)C(OC(C)=O)C1C` (configuration not stated) the T/C [3] was 95 % of control, the T/C [4] was 99 % of control and the T/C [5] was 96 % of control.

For `C[CH2][Sn]([CH2]C)([O]C(C)=O)[O][Sn]([CH2]C)([CH2]C)[O]C(C)=O`, the T/C [16] was 155 % of control.

With `Cc1ccc2c(=O)[nH]cnc2c1` the T/C (dose: 12.5 mg/kg/injection, schedule: Q01DX009 (ip), vehicle: Klucel (hydroxypropylcellulose) (HPC)) was 100 % of control, the T/C (dose: 25.0 mg/kg/injection, schedule: Q01DX009 (ip), vehicle: Klucel (hydroxypropylcellulose) (HPC)) was 98 % of control and 100 % of control and the T/C (dose: 50.0 mg/kg/injection, schedule: Q01DX009 (ip), vehicle: Klucel (hydroxypropylcellulose) (HPC)) was 99 % of control and 103 % of control. The T/C [17] was 101 % of control and 110 % of control and 97 % of control and the T/C [18] was 113 % of control.

In the case of `CCOC(=O)c1cn[nH]c(=O)c1C`, the T/C [3] was 100 % of control, the T/C [4] was 96 % of control and the T/C [5] was 104 % of control.

In the case of `COc1ccc2c(c1OC)C(O)N1CCc3cc4c(cc3C1=C2C(=O)c1ccccc1)OCO4` (configuration not stated), the T/C [10] was 100 % of control and 106 % of control, the T/C [11] was 100 % of control and 94 % of control and the T/C [8] was 103 % of control (2×) and 123 % of control. The T/C [9] was 111 % of control.

With `C=CC(C)(C)c1c(OC)oc(-c2ccccc2)cc1=O` the T/C (dose: 5.0 mg/kg/injection, schedule: Q01DX005 (ip), vehicle: saline + Tween-80 + alcohol) was 106 % of control, the T/C (dose: 10.0 mg/kg/injection, schedule: Q01DX005 (ip), vehicle: saline + Tween-80 + alcohol) was 111 % of control and the T/C (dose: 20.0 mg/kg/injection, schedule: Q01DX005 (ip), vehicle: saline + Tween-80 + alcohol) was 106 % of control. For the same molecule, the T/C (dose: 40.0 mg/kg/injection, schedule: Q01DX005 (ip), vehicle: saline + Tween-80 + alcohol) was 110 % of control.

In the case of `C=C1CC1CC(N)C(=O)O` (configuration not stated), the T/C (dose: 1.25 mg/kg/injection, schedule: Q01DX009 (ip), vehicle: saline) was 108 % of control, the T/C (dose: 2.5 mg/kg/injection, schedule: Q01DX009 (ip), vehicle: saline) was 96 % of control and the T/C (dose: 5.0 mg/kg/injection, schedule: Q01DX009 (ip), vehicle: saline) was 100 % of control.

In the case of `ClC(c1ccccc1)C1(Cl)C=c2ccccc2=C1` (configuration not stated), the T/C [17] was 109 % of control, the T/C (dose: 100.0 mg/kg/injection, schedule: Q04DX003 (ip), vehicle: Klucel (hydroxypropylcellulose) (HPC)) was 100 % of control and the T/C [18] was 109 % of control. For the same molecule, the T/C (dose: 200.0 mg/kg/injection, schedule: Q04DX003 (ip), vehicle: Klucel (hydroxypropylcellulose) (HPC)) was 104 % of control, the T/C (dose: 400.0 mg/kg/injection, schedule: Q01DX009 (ip), vehicle: Klucel (hydroxypropylcellulose) (HPC)) was 113 % of control and the T/C (dose: 400.0 mg/kg/injection, schedule: Q04DX003 (ip), vehicle: Klucel (hydroxypropylcellulose) (HPC)) was 109 % of control.

`O=c1oc2cc(N=Cc3ccccc3Cl)ccc2c2ccccc12` was tested, and the T/C [16] was 90 % of control, the T/C [12] was 90 % of control and the T/C [13] was 91 % of control. The T/C [3] was 98 % of control, the T/C [14] was 91 % of control and the T/C [4] was 114 % of control. The T/C [5] was 113 % of control and the T/C (dose: 400.0 mg/kg/injection, schedule: Q01DX009 (ip), vehicle: saline with Tween-80) was 87 % of control.

For `CC(C)(C)C(=O)CC(=O)C(C)(C)C.[Cu]`, the T/C (dose: 100.0 mg/kg/injection, schedule: Q04DX003 (ip), vehicle: saline with Tween-80) was 94 % of control and the T/C (dose: 200.0 mg/kg/injection, schedule: Q04DX003 (ip), vehicle: saline with Tween-80) was 101 % of control.
